# Several values for one entry are separate records, joined by “and”; a condition that tells them apart may be missing. Identical values can stand only once. Entries after “also recorded” stand apart in the source; their conditions may differ. Like-named read-outs stand apart in the source and are kept apart here.
# Experiments:
# [1] = biological target: T1, CYP2A6 (Homo sapiens, UniProt P11509); conditions: microsomes
# T1 sequence (P11509 1-494): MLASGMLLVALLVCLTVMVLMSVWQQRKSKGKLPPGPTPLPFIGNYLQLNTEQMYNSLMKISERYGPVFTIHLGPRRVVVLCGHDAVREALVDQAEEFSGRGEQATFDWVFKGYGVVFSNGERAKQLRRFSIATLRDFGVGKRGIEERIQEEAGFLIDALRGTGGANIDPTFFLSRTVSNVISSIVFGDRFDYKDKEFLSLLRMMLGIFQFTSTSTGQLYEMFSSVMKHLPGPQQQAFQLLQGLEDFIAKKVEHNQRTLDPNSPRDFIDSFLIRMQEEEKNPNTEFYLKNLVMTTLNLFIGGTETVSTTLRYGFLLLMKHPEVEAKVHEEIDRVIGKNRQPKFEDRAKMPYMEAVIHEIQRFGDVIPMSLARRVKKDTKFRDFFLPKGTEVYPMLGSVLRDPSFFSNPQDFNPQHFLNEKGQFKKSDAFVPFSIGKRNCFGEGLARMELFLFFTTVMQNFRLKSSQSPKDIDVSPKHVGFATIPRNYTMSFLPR
# Procedure: CYP inhibition in liver microsomes. […] Samples were analyzed for metabolite formation by LC-MS/MS. The results were expressed using the peak area ratio of analyte to internal standard, based on the calibration curves.
# Where Range=fitted uninhibited value, s=slope factor, x=inhibitor concentration, y=% control activity.
# [2] = biological target: KCNQ1/mink (Homo sapiens, UniProt P51787); assay: Ion channel screening; type: cell-based; conditions: 10 µM
# Chain of KCNQ1/mink (P51787 whole entry): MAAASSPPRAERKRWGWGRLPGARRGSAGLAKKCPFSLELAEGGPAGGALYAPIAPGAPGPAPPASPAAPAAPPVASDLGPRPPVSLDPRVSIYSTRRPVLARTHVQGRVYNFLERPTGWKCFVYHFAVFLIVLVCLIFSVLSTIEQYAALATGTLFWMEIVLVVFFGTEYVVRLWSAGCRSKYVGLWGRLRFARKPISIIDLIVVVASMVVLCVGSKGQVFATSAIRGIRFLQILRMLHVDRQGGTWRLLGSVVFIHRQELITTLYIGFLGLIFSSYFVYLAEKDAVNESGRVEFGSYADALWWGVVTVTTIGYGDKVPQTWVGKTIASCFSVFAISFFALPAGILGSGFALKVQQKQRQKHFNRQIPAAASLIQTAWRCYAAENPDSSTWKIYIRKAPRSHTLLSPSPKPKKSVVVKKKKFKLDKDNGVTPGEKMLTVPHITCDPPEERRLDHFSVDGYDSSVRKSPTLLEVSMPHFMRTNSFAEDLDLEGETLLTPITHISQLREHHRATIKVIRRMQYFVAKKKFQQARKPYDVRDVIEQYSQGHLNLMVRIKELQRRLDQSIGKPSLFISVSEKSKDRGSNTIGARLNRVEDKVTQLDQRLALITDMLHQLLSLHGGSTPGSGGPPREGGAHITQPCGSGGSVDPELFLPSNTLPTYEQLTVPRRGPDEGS
# Source text: (§1) Ion channel screening. […] The parameters measured were the maximum inward current evoked on stepping to -20 mV from the 1st and 26th pulse. Human Kv4.3/KChIP2 currents were evoked from a holding potential of -80 mV by a series of four 500 msec pulses to 0 mV using a 1000 msec interval between pulses. The parameter measured was the amplitude of the outward current 50 msec after the onset of the 4th voltage step to 0 mV. […] Human Kv1.5 currents were evoked by a single pulse from a holding potential of -80 mV to a potential of 0 mV for 4 sec before returning to -80 mV. The parameters measured were the maximum amplitude of outward currents evoked at the beginning of the voltage pulse and at the end of the voltage step from -80 mV to 0 mV. Human KCNQ1/minK currents were evoked by a single pulse delivered from a holding potential of -80 mV to +60 mV for 4 sec before returning to -80 mV. The parameter measured was the maximum outward current evoked on stepping to +60 mV from the holding potential of -80 mV. hERG currents were evoked by a three-pulse protocol where voltage was first stepped to +40 mV for two sec from a holding potential of –80 mV to inactivate hERG channels. […] The parameter measured was the maximum inward current evoked upon stepping to -110 mV from the holding potential of -30 mV. […]
# [3] = biological target: hERG (Homo sapiens, UniProt Q12809)
# Chain of hERG (Q12809 whole entry): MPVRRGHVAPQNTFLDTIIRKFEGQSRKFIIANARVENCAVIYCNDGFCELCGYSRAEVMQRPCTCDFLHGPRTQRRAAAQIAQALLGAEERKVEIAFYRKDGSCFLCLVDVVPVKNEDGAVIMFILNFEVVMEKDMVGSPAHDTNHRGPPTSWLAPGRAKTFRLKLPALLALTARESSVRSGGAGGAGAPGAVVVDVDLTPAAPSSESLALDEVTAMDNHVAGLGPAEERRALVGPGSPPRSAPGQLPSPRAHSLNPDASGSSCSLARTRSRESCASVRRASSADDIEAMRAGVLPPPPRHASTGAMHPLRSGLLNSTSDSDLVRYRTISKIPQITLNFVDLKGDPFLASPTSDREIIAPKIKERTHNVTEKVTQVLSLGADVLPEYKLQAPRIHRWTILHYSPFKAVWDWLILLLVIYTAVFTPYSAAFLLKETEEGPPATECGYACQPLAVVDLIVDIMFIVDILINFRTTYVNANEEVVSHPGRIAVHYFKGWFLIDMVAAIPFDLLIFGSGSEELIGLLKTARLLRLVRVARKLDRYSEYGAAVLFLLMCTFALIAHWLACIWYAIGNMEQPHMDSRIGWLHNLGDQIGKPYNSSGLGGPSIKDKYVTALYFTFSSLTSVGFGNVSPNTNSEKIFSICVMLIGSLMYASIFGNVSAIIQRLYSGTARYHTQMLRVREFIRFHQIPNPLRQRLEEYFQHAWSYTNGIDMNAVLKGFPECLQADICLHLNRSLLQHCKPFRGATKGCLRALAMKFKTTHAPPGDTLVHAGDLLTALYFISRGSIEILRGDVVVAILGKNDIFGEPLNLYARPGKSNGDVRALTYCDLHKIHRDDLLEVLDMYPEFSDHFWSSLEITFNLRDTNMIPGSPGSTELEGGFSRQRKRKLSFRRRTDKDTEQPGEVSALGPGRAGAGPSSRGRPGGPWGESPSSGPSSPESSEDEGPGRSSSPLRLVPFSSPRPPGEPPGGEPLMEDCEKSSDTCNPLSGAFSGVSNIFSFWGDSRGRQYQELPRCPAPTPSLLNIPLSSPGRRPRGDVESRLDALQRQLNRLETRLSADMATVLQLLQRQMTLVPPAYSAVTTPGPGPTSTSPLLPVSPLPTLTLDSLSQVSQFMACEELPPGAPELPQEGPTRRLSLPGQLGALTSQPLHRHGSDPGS
# Procedure: Caco-2 and HEK293 cells were obtained from the American Type Culture Collection (ATCC, Manassas, VA) and grown in culture according to the supplier’s specifications. In some experiments, HEK293 cells were stably transfected with hERG cDNA, and polyclonal cultures were maintained in the presence of 250 µg/ml geneticin (G418).
# Patch clamp recording. […] For electrophysiology recording, a micropipette was pulled from borosilicate glass with the pipette tip resistance between 3 ~ 5 MΩ. For each experiment, polyclonal HEK293 cells stably transfected with hERG cDNA and maintained in 250 µg/ml Geneticin (G418) were plated on 35 mm dishes on the microscope stage and a commercial patch clamp amplifier was used for the whole cell recordings. The tail currents were evoked at 22°C once every 30 sec by a 3 sec-50 mV repolarizing pulse following a 2 sec +50 mV depolarizing pulse with a hold voltage of -80 mV. A 50 msec depolarized pulse to -50 mV at the beginning of the voltage protocol served as a baseline for calculating the amplitude of the peak tail current. […] The cells were kept in the test solution until the peak tail current was stable (<5% change) for ~5 sweeps or for a maximum of 6 min, whichever came first. Peak tail amplitudes were plotted as a function of the sweep number. […] The % inhibition of the test article was calculated from the following equation:
# [4] = biological target: Kv1.5 (Homo sapiens, UniProt P22460); assay: Ion channel screening; type: cell-based; conditions: 10 µM
# Chain of Kv1.5 (P22460 whole entry): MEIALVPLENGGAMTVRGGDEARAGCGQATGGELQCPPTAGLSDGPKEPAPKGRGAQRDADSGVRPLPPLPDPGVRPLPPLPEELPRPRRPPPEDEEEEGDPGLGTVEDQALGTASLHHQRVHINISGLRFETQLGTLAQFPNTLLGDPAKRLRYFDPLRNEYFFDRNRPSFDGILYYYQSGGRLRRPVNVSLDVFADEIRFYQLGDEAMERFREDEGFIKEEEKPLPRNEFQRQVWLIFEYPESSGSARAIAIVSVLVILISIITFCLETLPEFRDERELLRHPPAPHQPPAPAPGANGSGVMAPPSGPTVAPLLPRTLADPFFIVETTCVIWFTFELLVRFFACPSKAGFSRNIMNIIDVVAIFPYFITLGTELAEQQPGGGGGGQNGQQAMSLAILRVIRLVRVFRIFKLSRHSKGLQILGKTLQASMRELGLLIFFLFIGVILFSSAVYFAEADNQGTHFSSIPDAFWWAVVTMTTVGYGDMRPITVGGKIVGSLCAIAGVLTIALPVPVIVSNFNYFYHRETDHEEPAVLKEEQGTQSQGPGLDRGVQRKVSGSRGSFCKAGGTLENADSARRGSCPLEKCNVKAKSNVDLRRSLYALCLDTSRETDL
# Source text: as §1
# [5] = biological target: Nav1.5 (Homo sapiens, UniProt Q14524); assay: Ion channel screening; type: cell-based; conditions: 10 µM, pulse 26
# Chain of Nav1.5 (Q14524 whole entry): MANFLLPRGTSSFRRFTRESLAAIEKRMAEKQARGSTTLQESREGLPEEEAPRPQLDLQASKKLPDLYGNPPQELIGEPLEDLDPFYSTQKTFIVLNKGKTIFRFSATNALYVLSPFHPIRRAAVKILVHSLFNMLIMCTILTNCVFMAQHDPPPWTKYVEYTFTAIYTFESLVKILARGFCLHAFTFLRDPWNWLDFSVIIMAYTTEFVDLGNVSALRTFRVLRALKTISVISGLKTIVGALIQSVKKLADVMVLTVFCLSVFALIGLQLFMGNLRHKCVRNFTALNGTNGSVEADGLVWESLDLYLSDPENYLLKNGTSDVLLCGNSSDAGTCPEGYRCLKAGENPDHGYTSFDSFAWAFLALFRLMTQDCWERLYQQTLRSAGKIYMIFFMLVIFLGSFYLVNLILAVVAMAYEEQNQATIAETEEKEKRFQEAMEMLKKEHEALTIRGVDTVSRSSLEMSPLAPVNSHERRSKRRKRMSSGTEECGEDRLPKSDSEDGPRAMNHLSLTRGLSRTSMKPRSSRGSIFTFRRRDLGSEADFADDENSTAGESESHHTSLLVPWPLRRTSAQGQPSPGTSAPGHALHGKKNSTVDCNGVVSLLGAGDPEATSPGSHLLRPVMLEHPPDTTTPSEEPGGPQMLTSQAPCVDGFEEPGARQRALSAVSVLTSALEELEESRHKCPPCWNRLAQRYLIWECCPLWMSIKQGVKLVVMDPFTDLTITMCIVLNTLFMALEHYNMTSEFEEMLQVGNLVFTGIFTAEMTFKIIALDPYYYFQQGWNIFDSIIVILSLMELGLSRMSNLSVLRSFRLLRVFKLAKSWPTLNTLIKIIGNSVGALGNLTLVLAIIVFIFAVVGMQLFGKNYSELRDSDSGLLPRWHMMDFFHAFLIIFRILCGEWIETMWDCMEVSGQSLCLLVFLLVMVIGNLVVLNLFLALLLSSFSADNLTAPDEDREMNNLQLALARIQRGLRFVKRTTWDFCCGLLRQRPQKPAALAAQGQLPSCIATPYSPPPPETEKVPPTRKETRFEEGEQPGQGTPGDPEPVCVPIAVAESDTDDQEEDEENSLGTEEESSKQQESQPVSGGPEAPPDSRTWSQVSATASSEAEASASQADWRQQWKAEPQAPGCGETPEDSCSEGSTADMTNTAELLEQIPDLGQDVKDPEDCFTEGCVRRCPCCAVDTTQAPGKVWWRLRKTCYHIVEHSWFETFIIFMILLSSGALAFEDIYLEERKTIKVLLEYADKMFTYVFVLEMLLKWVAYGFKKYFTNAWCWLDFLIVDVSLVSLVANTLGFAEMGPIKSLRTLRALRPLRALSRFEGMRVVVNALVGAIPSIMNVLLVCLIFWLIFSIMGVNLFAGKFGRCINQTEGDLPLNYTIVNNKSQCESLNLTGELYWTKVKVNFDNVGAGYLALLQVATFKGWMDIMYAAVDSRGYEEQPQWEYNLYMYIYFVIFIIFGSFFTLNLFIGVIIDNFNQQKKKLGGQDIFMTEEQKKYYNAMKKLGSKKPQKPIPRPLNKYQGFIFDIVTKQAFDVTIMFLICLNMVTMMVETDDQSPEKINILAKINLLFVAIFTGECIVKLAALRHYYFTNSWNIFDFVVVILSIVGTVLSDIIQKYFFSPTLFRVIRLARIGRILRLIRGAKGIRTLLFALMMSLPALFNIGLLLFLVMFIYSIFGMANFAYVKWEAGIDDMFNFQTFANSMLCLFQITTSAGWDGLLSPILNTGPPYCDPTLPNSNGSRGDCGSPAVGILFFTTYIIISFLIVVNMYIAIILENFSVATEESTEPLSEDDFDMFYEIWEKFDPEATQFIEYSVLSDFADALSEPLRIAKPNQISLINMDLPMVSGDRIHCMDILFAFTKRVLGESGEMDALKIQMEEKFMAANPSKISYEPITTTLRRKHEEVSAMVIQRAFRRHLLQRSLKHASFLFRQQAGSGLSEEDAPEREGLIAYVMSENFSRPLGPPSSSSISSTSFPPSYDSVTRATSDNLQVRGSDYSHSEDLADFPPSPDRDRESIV
# Source text: as §1
# [6] = Gamitrinib pharmacokinetics in rat plasma, single IV dose; type: in vivo, Sprague-Dawley rats
# Procedure: Sprague-Dawley rats (n = 3) were administered with a single intravenous (IV) dose of 1 mL Gamitrinib (5 mg/kg) formulated as described above without added microfluidization. Blood samples were collected via lateral tail vein using K2EDTA as an anticoagulant at 0.083, 0.25, 0.5, 1, 2, 4, and 24 h post-dose, chilled on ice, and centrifuged at 5000 rpm for 10 min. Aliquots (0.2 mL) of each plasma sample were stored frozen at −20°C. For analysis, 50 µL aliquots of the study samples were mixed with 50 µL of ACN/H2O (50:50), extracted by protein precipitation using ACN containing the internal standard Gamitrinib-d15 (100 ng/mL), and the aliquots of the supernatant were mixed with deionized water for Gamitrinib determination. Batch samples under analysis included a calibration curve, a matrix blank (blank rat plasma), a reagent blank, a control zero (blank rat plasma spiked with internal standard), and duplicate QC samples at three concentration levels (low, medium, and high) in addition to the study samples. Within each batch, the study samples were bracketed by calibration standards or QC samples. The lowest calibration standard served to evaluate system suitability at the beginning of each batch. […] Overall, the concentration of Gamitrinib was measured in 21 rat plasma samples in 1 analytical batch using LC-MS/MS data acquisition on a Shimadzu Nexera LC system coupled with an AB Sciex Triple Quad 5500 mass spectrometer. Chromatograms were integrated using Analyst 1.6.2 software. A weighted (1/x^2, x = concentration) linear regression was used to generate the calibration curve for Gamitrinib. […] The mean, standard deviation, precision, accuracy, and assay variability were calculated using Microsoft Excel.
compound,measurement,setting,value
COC1C=CC=C(C)C(=O)NC2=CC(=O)C(NCCCCCC[P+](c3ccccc3)(c3ccccc3)c3ccccc3)=C(CC(C)CC(OC)C(O)C(C)C=C(C)C1OC(N)=O)C2=O.F[P-](F)(F)(F)(F)F (stereo not shown) [Gamitrinib],IC50,[1],24 µM
same,inhibition of KCNQ1/mink currents,[2],22.5 ± 1.1%
same,IC50,[3],3.5 µM
same,inhibition of hERG currents,[3]; 0.5 µM,−0.68 ± 3.95%
same,inhibition of hERG currents,[3]; 5 µM,65.95 ± 6.78%
same,hERG IC50 over IC50 of inhibition of tumor growth in NCI 60-cell line screen,[3]; ratio,up to 20 fold
same,inhibition of Kv1.5 currents,[4],6.6 ± 1.3%
same,inhibition of Nav1.5 currents,[5],22.3 ± 5.3%
same,AUCINF,"[6]; 5 mg/kg IV, Mean (n = 3)",976.002 ng·h/mL
same,AUClast (AUC0-t),"[6]; 5 mg/kg IV, Mean (n = 3)",783.1 ± 71.3 ng·h/mL and 783.199 ng·h/mL
same,CL,"[6]; 5 mg/kg IV, Mean (n = 3)",85.6 ± 5.8 mL/min/kg and 85.65 ± 5.85 mL/min/kg and 85.656 mL/min/kg
same,MRT,"[6]; 5 mg/kg IV, Mean (n = 3)",5.492 h
same,Vss,"[6]; 5 mg/kg IV, Mean (n = 3)",65.471 L/kg
same,Vz,"[6]; 5 mg/kg IV, Mean (n = 3)",91.159 L/kg
same,t1/2,"[6]; 5 mg/kg IV, Mean (n = 3)",12.2 ± 1.55 h and 12.250 h
same,AUCINF,"[6]; 5 mg/kg IV, Rat 1",1051.752 ng·h/mL
same,AUClast,"[6]; 5 mg/kg IV, Rat 1",851.441 ng·h/mL
same,CL,"[6]; 5 mg/kg IV, Rat 1",79.233 mL/min/kg
same,Cmax,"[6]; 5 mg/kg IV, Rat 1",1153.712 ng/mL
same,MRT,"[6]; 5 mg/kg IV, Rat 1",5.539 h
same,Vss,"[6]; 5 mg/kg IV, Rat 1",58.230 L/kg
same,Vz,"[6]; 5 mg/kg IV, Rat 1",79.715 L/kg
same,t1/2,"[6]; 5 mg/kg IV, Rat 1",11.623 h
same,AUCINF,"[6]; 5 mg/kg IV, Rat 2",957.472 ng·h/mL
same,AUClast,"[6]; 5 mg/kg IV, Rat 2",789.045 ng·h/mL
same,CL,"[6]; 5 mg/kg IV, Rat 2",87.035 mL/min/kg
same,Cmax,"[6]; 5 mg/kg IV, Rat 2",829.668 ng/mL
same,MRT,"[6]; 5 mg/kg IV, Rat 2",5.411 h
same,Vss,"[6]; 5 mg/kg IV, Rat 2",60.052 L/kg
same,Vz,"[6]; 5 mg/kg IV, Rat 2",83.678 L/kg
same,t1/2,"[6]; 5 mg/kg IV, Rat 2",11.107 h
same,AUCINF,"[6]; 5 mg/kg IV, Rat 3",918.784 ng·h/mL
same,AUClast,"[6]; 5 mg/kg IV, Rat 3",709.112 ng·h/mL
same,CL,"[6]; 5 mg/kg IV, Rat 3",90.700 mL/min/kg
same,Cmax,"[6]; 5 mg/kg IV, Rat 3",1544.041 ng/mL
same,MRT,"[6]; 5 mg/kg IV, Rat 3",5.524 h
same,Vss,"[6]; 5 mg/kg IV, Rat 3",78.131 L/kg
same,Vz,"[6]; 5 mg/kg IV, Rat 3",110.085 L/kg
same,t1/2,"[6]; 5 mg/kg IV, Rat 3",14.022 h
same,Gamitrinib plasma concentration,"[6]; 5 mg/kg IV, animal 1, 5 min",622.199 ng/mL
same,Gamitrinib plasma concentration,"[6]; 5 mg/kg IV, animal 1, 15 min",180.951 ng/mL
same,Gamitrinib plasma concentration,"[6]; 5 mg/kg IV, animal 1, 30 min",106.381 ng/mL
same,Gamitrinib plasma concentration,"[6]; 5 mg/kg IV, animal 1, 60 min",71.445 ng/mL
same,Gamitrinib plasma concentration,"[6]; 5 mg/kg IV, animal 1, 120 min",46.657 ng/mL
same,Gamitrinib plasma concentration,"[6]; 5 mg/kg IV, animal 1, 240 min",36.816 ng/mL
same,Gamitrinib plasma concentration,"[6]; 5 mg/kg IV, animal 1, 1440 min",11.946 ng/mL
same,Gamitrinib plasma concentration,"[6]; 5 mg/kg IV, animal 2, 5 min",526.229 ng/mL
same,Gamitrinib plasma concentration,"[6]; 5 mg/kg IV, animal 2, 15 min",211.686 ng/mL
same,Gamitrinib plasma concentration,"[6]; 5 mg/kg IV, animal 2, 30 min",114.230 ng/mL
same,Gamitrinib plasma concentration,"[6]; 5 mg/kg IV, animal 2, 60 min",65.903 ng/mL
same,Gamitrinib plasma concentration,"[6]; 5 mg/kg IV, animal 2, 120 min",43.125 ng/mL
same,Gamitrinib plasma concentration,"[6]; 5 mg/kg IV, animal 2, 240 min",34.776 ng/mL
same,Gamitrinib plasma concentration,"[6]; 5 mg/kg IV, animal 2, 1440 min",10.511 ng/mL
same,Gamitrinib plasma concentration,"[6]; 5 mg/kg IV, animal 3, 5 min",674.432 ng/mL
same,Gamitrinib plasma concentration,"[6]; 5 mg/kg IV, animal 3, 15 min",128.663 ng/mL
same,Gamitrinib plasma concentration,"[6]; 5 mg/kg IV, animal 3, 30 min",67.204 ng/mL
same,Gamitrinib plasma concentration,"[6]; 5 mg/kg IV, animal 3, 60 min",55.991 ng/mL
same,Gamitrinib plasma concentration,"[6]; 5 mg/kg IV, animal 3, 120 min",29.914 ng/mL
same,Gamitrinib plasma concentration,"[6]; 5 mg/kg IV, animal 3, 240 min",28.905 ng/mL
same,Gamitrinib plasma concentration,"[6]; 5 mg/kg IV, animal 3, 1440 min",10.365 ng/mL
same,generation of metabolite 17-AG,"[6]; rats, IV Gamitrinib 5 mg/kg, plasma",without generation of 17-AG; also recorded: did not generate detectable levels; also recorded: no generation of 17-AG

# From PMC8820820, “Feasibility and safety of targeting mitochondria for cancer therapy – preclinical characterization of gamitrinib, a first-in-class, mitochondriaL-targeted small molecule Hsp90 inhibitor” (Cancer Biology & Therapy, 2022)
